We go through four compounds from PubChem BioAssay (NCI).

Each structure is given as a SMILES string.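 Compound exposure: 48 hours, 5 concentrations, 96-well plates. TGI: concentration producing complete growth inhibition.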

In one test the test system is HS 578T breast. Description: DTP human tumour cell line panel, 48 h.
`Cc1ccc2c(c1)C(=O)C1(Cc3ccccc3C1=O)C2` (stereo not given): the TGI – broadly, the concentration at which net growth stops – is over 100 µM.

The compound `COc1cc(/C=C/C(=O)CC(=O)/C=C/c2ccc(OC(=O)CCCCC3CCSS3)c(OC)c2)ccc1OC(=O)CCCCC1CCSS1` (stereo not given) registered a TGI of over 100 µM.

In turn, `O=c1c2sc(=S)n(-c3ccc(F)cc3)c2ncn1/N=C/c1ccc(F)cc1F` registered a TGI of 76.3 µM.

In another test the test system is TK-10 renal. Description: DTP human tumour cell line panel, 48 h.
`CCN(CC)/C(SCc1ccccc1)=C(\C(Cl)=C(Cl)Cl)[N+](=O)[O-]` gave a TGI of 33.3 µM. This counts as double-digit micromolar.

Take `Cc1ccc2c(c1)C(=O)C1(Cc3ccccc3C1=O)C2` (stereo not given): the TGI is over 100 µM.

`COc1cc(/C=C/C(=O)CC(=O)/C=C/c2ccc(OC(=O)CCCCC3CCSS3)c(OC)c2)ccc1OC(=O)CCCCC1CCSS1` (stereo not given): the TGI is over 100 µM.

The compound `O=c1c2sc(=S)n(-c3ccc(F)cc3)c2ncn1/N=C/c1ccc(F)cc1F` had a TGI of 40 µM. That is a double-digit micromolar value.

For a further test, the system named is HCC-2998 colon. In words: DTP human tumour cell line panel, 48 h.
`CCN(CC)/C(SCc1ccccc1)=C(\C(Cl)=C(Cl)Cl)[N+](=O)[O-]` displayed a TGI of 47.7 µM. This counts as double-digit micromolar.

For `Cc1ccc2c(c1)C(=O)C1(Cc3ccccc3C1=O)C2` (stereo not given), the TGI is over 100 µM.

In the case of `O=c1c2sc(=S)n(-c3ccc(F)cc3)c2ncn1/N=C/c1ccc(F)cc1F`, the TGI is over 100 µM.

For another test, the system named is SN12C renal. In words: DTP human tumour cell line panel, 48 h.
`CCN(CC)/C(SCc1ccccc1)=C(\C(Cl)=C(Cl)Cl)[N+](=O)[O-]`: the TGI came to 42.4 µM.

Regarding `Cc1ccc2c(c1)C(=O)C1(Cc3ccccc3C1=O)C2` (stereo not given), the TGI is over 100 µM.

In the case of `COc1cc(/C=C/C(=O)CC(=O)/C=C/c2ccc(OC(=O)CCCCC3CCSS3)c(OC)c2)ccc1OC(=O)CCCCC1CCSS1` (stereo not given), the TGI was over 100 µM.

Consider `O=c1c2sc(=S)n(-c3ccc(F)cc3)c2ncn1/N=C/c1ccc(F)cc1F`, for which the TGI is over 100 µM.

A further test concerns HCT-116 colon. Description: DTP human tumour cell line panel, 48 h.
With `CCN(CC)/C(SCc1ccccc1)=C(\C(Cl)=C(Cl)Cl)[N+](=O)[O-]`, the TGI worked out at 28.2 µM.

The compound `Cc1ccc2c(c1)C(=O)C1(Cc3ccccc3C1=O)C2` (stereo not given) gave a TGI of over 100 µM.

`COc1cc(/C=C/C(=O)CC(=O)/C=C/c2ccc(OC(=O)CCCCC3CCSS3)c(OC)c2)ccc1OC(=O)CCCCC1CCSS1` (stereo not given): the TGI was over 100 µM.

In turn, `O=c1c2sc(=S)n(-c3ccc(F)cc3)c2ncn1/N=C/c1ccc(F)cc1F` yielded a concentration for total growth inhibition (TGI) of over 100 µM.

The next test deals with DU-145 prostate. In words: DTP human tumour cell line panel, 48 h.
`CCN(CC)/C(SCc1ccccc1)=C(\C(Cl)=C(Cl)Cl)[N+](=O)[O-]`: the TGI was 39.2 µM.

In turn, `Cc1ccc2c(c1)C(=O)C1(Cc3ccccc3C1=O)C2` (stereo not given) displayed a TGI of over 100 µM.

Take `COc1cc(/C=C/C(=O)CC(=O)/C=C/c2ccc(OC(=O)CCCCC3CCSS3)c(OC)c2)ccc1OC(=O)CCCCC1CCSS1` (stereo not given): the TGI was over 100 µM.

As to `O=c1c2sc(=S)n(-c3ccc(F)cc3)c2ncn1/N=C/c1ccc(F)cc1F`, the TGI was 39.4 µM.

The test system of the next test is U251 CNS. Description: DTP human tumour cell line panel, 48 h.
In turn, `CCN(CC)/C(SCc1ccccc1)=C(\C(Cl)=C(Cl)Cl)[N+](=O)[O-]` registered a TGI of 49 µM.

For `Cc1ccc2c(c1)C(=O)C1(Cc3ccccc3C1=O)C2` (stereo not given), the TGI was over 100 µM.

`COc1cc(/C=C/C(=O)CC(=O)/C=C/c2ccc(OC(=O)CCCCC3CCSS3)c(OC)c2)ccc1OC(=O)CCCCC1CCSS1` (stereo not given) showed a TGI of over 100 µM.

`O=c1c2sc(=S)n(-c3ccc(F)cc3)c2ncn1/N=C/c1ccc(F)cc1F`: the TGI was 52 µM.

In the next test the test system is HOP-62 NSCLC. Description: DTP human tumour cell line panel, 48 h.
Compound `CCN(CC)/C(SCc1ccccc1)=C(\C(Cl)=C(Cl)Cl)[N+](=O)[O-]` yielded a TGI of 45.6 µM.

`Cc1ccc2c(c1)C(=O)C1(Cc3ccccc3C1=O)C2` (stereo not given): the TGI was over 100 µM.

With `COc1cc(/C=C/C(=O)CC(=O)/C=C/c2ccc(OC(=O)CCCCC3CCSS3)c(OC)c2)ccc1OC(=O)CCCCC1CCSS1` (stereo not given), the TGI is over 100 µM.

Consider `O=c1c2sc(=S)n(-c3ccc(F)cc3)c2ncn1/N=C/c1ccc(F)cc1F`, for which the concentration for total growth inhibition (TGI) was determined as 30.7 µM.

The next test has as its system HL-60(TB) leukemia. In words: DTP human tumour cell line panel, 48 h.
As for `CCN(CC)/C(SCc1ccccc1)=C(\C(Cl)=C(Cl)Cl)[N+](=O)[O-]`, the TGI came to 38.9 µM. In other words, the double-digit micromolar range.

With `Cc1ccc2c(c1)C(=O)C1(Cc3ccccc3C1=O)C2` (stereo not given), the TGI was over 100 µM.

Consider `COc1cc(/C=C/C(=O)CC(=O)/C=C/c2ccc(OC(=O)CCCCC3CCSS3)c(OC)c2)ccc1OC(=O)CCCCC1CCSS1` (stereo not given), for which the TGI was over 100 µM.

As to `O=c1c2sc(=S)n(-c3ccc(F)cc3)c2ncn1/N=C/c1ccc(F)cc1F`, the TGI was over 100 µM.

The test system of a further test is NCI-H522 lung. Description: DTP human tumour cell line panel, 48 h.
`CCN(CC)/C(SCc1ccccc1)=C(\C(Cl)=C(Cl)Cl)[N+](=O)[O-]` registered a total growth inhibition concentration (TGI) of 47.2 µM.

Take `Cc1ccc2c(c1)C(=O)C1(Cc3ccccc3C1=O)C2` (stereo not given): the TGI is over 100 µM.

Regarding `COc1cc(/C=C/C(=O)CC(=O)/C=C/c2ccc(OC(=O)CCCCC3CCSS3)c(OC)c2)ccc1OC(=O)CCCCC1CCSS1` (stereo not given), the TGI is over 100 µM.

`O=c1c2sc(=S)n(-c3ccc(F)cc3)c2ncn1/N=C/c1ccc(F)cc1F` returned a TGI of over 100 µM.

Another test has as its system BT-549 breast. Description: DTP human tumour cell line panel, 48 h.
`COc1cc(/C=C/C(=O)CC(=O)/C=C/c2ccc(OC(=O)CCCCC3CCSS3)c(OC)c2)ccc1OC(=O)CCCCC1CCSS1` (stereo not given) returned a total growth inhibition concentration (TGI) of over 100 µM.

`O=c1c2sc(=S)n(-c3ccc(F)cc3)c2ncn1/N=C/c1ccc(F)cc1F`: the TGI came to 37.5 µM. In other words, the double-digit micromolar range.

The next test concerns SW-620 colon. Description: DTP human tumour cell line panel, 48 h.
In the case of `CCN(CC)/C(SCc1ccccc1)=C(\C(Cl)=C(Cl)Cl)[N+](=O)[O-]`, the TGI stood at 50.4 µM.

The compound `Cc1ccc2c(c1)C(=O)C1(Cc3ccccc3C1=O)C2` (stereo not given) gave a TGI of over 100 µM.

In turn, `COc1cc(/C=C/C(=O)CC(=O)/C=C/c2ccc(OC(=O)CCCCC3CCSS3)c(OC)c2)ccc1OC(=O)CCCCC1CCSS1` (stereo not given) had a TGI of over 100 µM.

Compound `O=c1c2sc(=S)n(-c3ccc(F)cc3)c2ncn1/N=C/c1ccc(F)cc1F` gave a TGI of over 100 µM.

For the next test, the system named is MOLT-4 leukemia. In words: DTP human tumour cell line panel, 48 h.
With `CCN(CC)/C(SCc1ccccc1)=C(\C(Cl)=C(Cl)Cl)[N+](=O)[O-]`, the TGI amounted to 44.5 µM. That is a double-digit micromolar value.

The compound `Cc1ccc2c(c1)C(=O)C1(Cc3ccccc3C1=O)C2` (stereo not given) came in with a TGI of over 100 µM.

In the case of `COc1cc(/C=C/C(=O)CC(=O)/C=C/c2ccc(OC(=O)CCCCC3CCSS3)c(OC)c2)ccc1OC(=O)CCCCC1CCSS1` (stereo not given), the TGI is over 100 µM.

Another test concerns NCI-H460 lung. In words: DTP human tumour cell line panel, 48 h.
In turn, `CCN(CC)/C(SCc1ccccc1)=C(\C(Cl)=C(Cl)Cl)[N+](=O)[O-]` registered a total growth inhibition concentration (TGI) of 55.1 µM.

`Cc1ccc2c(c1)C(=O)C1(Cc3ccccc3C1=O)C2` (stereo not given) came in with a TGI of over 100 µM.

For `COc1cc(/C=C/C(=O)CC(=O)/C=C/c2ccc(OC(=O)CCCCC3CCSS3)c(OC)c2)ccc1OC(=O)CCCCC1CCSS1` (stereo not given), the total growth inhibition concentration (TGI) is over 100 µM.

Compound `O=c1c2sc(=S)n(-c3ccc(F)cc3)c2ncn1/N=C/c1ccc(F)cc1F` returned a TGI of over 100 µM.

The next test has as its system SK-MEL-5 melanoma. Description: DTP human tumour cell line panel, 48 h.
Compound `CCN(CC)/C(SCc1ccccc1)=C(\C(Cl)=C(Cl)Cl)[N+](=O)[O-]` registered a TGI of 30.5 µM.

In turn, `Cc1ccc2c(c1)C(=O)C1(Cc3ccccc3C1=O)C2` (stereo not given) showed a TGI of over 100 µM.

The compound `COc1cc(/C=C/C(=O)CC(=O)/C=C/c2ccc(OC(=O)CCCCC3CCSS3)c(OC)c2)ccc1OC(=O)CCCCC1CCSS1` (stereo not given) returned a total growth inhibition concentration (TGI) of over 100 µM.

In the case of `O=c1c2sc(=S)n(-c3ccc(F)cc3)c2ncn1/N=C/c1ccc(F)cc1F`, the TGI was over 100 µM.
